Results published in ChEMBL document CHEMBL1201862, “PubChem BioAssay data set” (2004).
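Each compound was tested at five concentrations against cells in 96-well plates for 48 hours. At the GI50, growth is halved.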 Active and inactive are the calls of the source. Rule as the data show it: active = GI50 up to about 1.1 µM and inactive = higher.

Legend:
Assay in all cases: DTP human tumour cell line panel, 48 h
SR = test system: SR
U-251 = test system: U-251
OVCAR-4 = test system: OVCAR-4
EKVX = test system: EKVX
Malme-3M = test system: Malme-3M
LOX IMVI = test system: LOX IMVI
HL-60 = test system: HL-60
SK-MEL-2 = test system: SK-MEL-2
M14 = test system: M14
KM12 = test system: KM12
COLO 205 = test system: COLO 205
SN12C = test system: SN12C
OVCAR-3 = test system: OVCAR-3
UO-31 = test system: UO-31
HOP-92 = test system: HOP-92
K562 = test system: K562
NCI-H460 = test system: NCI-H460
A549 = test system: A549
HCT-15 = test system: HCT-15
ACHN = test system: ACHN

SMILES | GI50 (SR) | GI50 (U-251) | GI50 (OVCAR-4) | GI50 (EKVX) | GI50 (Malme-3M) | GI50 (LOX IMVI) | GI50 (HL-60) | GI50 (SK-MEL-2) | GI50 (M14) | GI50 (KM12) | GI50 (COLO 205) | GI50 (SN12C) | GI50 (OVCAR-3) | GI50 (UO-31) | GI50 (HOP-92) | GI50 (K562) | GI50 (NCI-H460) | GI50 (A549) | GI50 (HCT-15) [µM] | GI50 (ACHN)
CC1(C)N/C(=C\C=O)C(C)(C)N1O | > 100 µM (inactive) | > 100 µM (inactive) | > 100 µM (inactive) | > 100 µM (inactive) | > 100 µM (inactive) | > 100 µM (inactive) | > 100 µM (inactive) | > 100 µM (inactive) | > 100 µM (inactive) | > 100 µM (inactive) | > 100 µM (inactive) | > 100 µM (inactive) | > 100 µM (inactive) | > 100 µM (inactive) | > 100 µM (inactive) | > 100 µM (inactive) | > 100 µM (inactive) | > 100 µM (inactive) | > 100 | > 100 µM (inactive)
CC1(C)CCc2ccc(OCCC(=O)O)cc2O1 | > 100 µM (inactive) | > 100 µM (inactive) | > 100 µM (inactive) | > 100 µM (inactive) | > 100 µM (inactive) | > 100 µM (inactive) | > 100 µM (inactive) | > 100 µM (inactive) | > 100 µM (inactive) | > 100 µM (inactive) | > 100 µM (inactive) | > 100 µM (inactive) | > 100 µM (inactive) | > 100 µM (inactive) | > 100 µM (inactive) | > 100 µM (inactive) | > 100 µM (inactive) | > 100 µM (inactive) | > 100 | > 100 µM (inactive)
